Measurements as given in patent US20160263130A1, “PHARMACEUTICAL COMPOSITION FOR PREVENTING OR TREATING LIVER DISEASES, CONTAINING PLASMALOGEN PRECURSOR, PLASMALOGEN OR PLASMALOGEN ANALOG AS EFFECTIVE COMPONENT” (UNIVERSITY OF ULSAN FOUNDATION FOR INDUSTRY COOPERATION, priority 2013, published 2016).

Columns and labels:
Assay type in all cases: in vivo, C57/BL6 male mice
[1] = tested on: mice treated with methionine-choline deficient diet (MCDD); test: Plasma ALT measurement in MCD diet steatohepatitis mice; conditions: MCD diet together with 100 mg/kg/day, 6 weeks, vs MCDD group, FIG. 1
Procedure: (§1) A methionine-choline deficient (MCD) feed to induce steatohepatitis was purchased from Dyets (Bethlehem, Pa., USA). Alkoxy glycerol (batyl alcohol), as a plasmalogen precursor, was purchased from Sigma (St Louis, Mo., USA).
(§2) 2% BSA was prepared in a DMEM:F12 medium, and plasmalogen precursor alkoxy glycerol dissolved in ethanol was added thereto After incubation at 70° C. for 20 minutes, the mixture was inoculated in a manner of observing crystal disappearance. 7-week-old C57/BL6 male mice were brought in to an experimental animal room, stabilized for 7 days, and then separated into a general feed group, as a control group, an MCD diet group (an MCDD group), and a group taken a mixture of MCD diet and 100 mg/kg/day of plasmalogen precursor alkoxy glycerol (an AG group), where each of the groups had six mice. The test feeds were taken for the total of 6 weeks, and the mice were allowed to only take water for the following 12 hours. Then, blood samples were obtained from the mice, and liver tissues were harvested from each of the mice. […]
Blood samples were obtained from venae cavae of the experimental animals, the plasma was separated from the blood samples by using a centrifuge (at 300 rpm for 15 minutes), and alanine aminotransferase (ALT) of the plasma was measured by using a kit of Labs Biotechnology (London, Canada). […]

[2] = tested on: mice treated with methionine-choline deficient diet (MCDD); test: Neutral fats (triglyceride) in liver tissue of MCD diet mice; conditions: MCD diet together with 100 mg/kg/day, 6 weeks, FIG. 2
Procedure: as §1, §2
Neutral fats in the liver tissue was measured by using a triglyceride (GPO-Trinder) kit purchased from Sigma. […] Then, a triglyceride reagent A was added thereto, allowed to react at room temperature for 5 minutes, and the measurement was performed by using an Emax precision micro plate reader (Molecular Devices, Sunnyvale, Calif.) at 540 nm.

[3] = tested on: tumor necrosis factor (TNF-α) and monocyte chemotactic protein-1 (MCP-1) gene expression; test: Inflammatory cytokine gene expression in liver tissue by real-time PCR, MCD diet mice; conditions: MCD diet with 100 mg/kg/day, 6 weeks, FIG. 3
Procedure: as §1
(§3) 2% BSA was prepared in a DMEM:F12 medium, and plasmalogen precursor alkoxy glycerol dissolved in ethanol was added thereto After incubation at 70° C. for 20 minutes, the mixture was inoculated in a manner of observing crystal disappearance. 7-week-old C57/BL6 male mice were brought in to an experimental animal room, stabilized for 7 days, and then separated into a general feed group, as a control group, an MCD diet group (an MCDD group), and a group taken a mixture of MCD diet and 100 mg/kg/day of plasmalogen precursor alkoxy glycerol (an AG group), where each of the groups had six mice. The test feeds were taken for the total of 6 weeks, and the mice were allowed to only take water for the following 12 hours. Then, blood samples were obtained from the mice, and liver tissues were harvested from each of the mice. The harvested liver tissues were instantly rapid-frozen in dry ice and stored with plasma in a freezer at −70° C.
In order to confirm change in an inflammation degree of liver tissues, gene expression of a tumor necrosis factor (TNF-α) and monocyte chemotactic protein-1 (MCP-1), which are typical inflammatory cytokines, were confirmed by real-time PCR.

[4] = tested on: mice treated with methionine-choline deficient diet (MCDD); test: Liver histological observation (H&E, trichrome C), MCD diet mice; conditions: FIG. 4
Procedure: as §1
as §3, with “−70° C. […]” for “−70° C.”
The segment was died with hematoxylin-eosin (H&E) and trichrome C, and examined and analyzed by using an optical microscope.

[5] = tested on: mice that were allowed to take high fat diet (HFD); test: High fat diet (HFD) hepatic steatosis animal model; conditions: HFD mixed with 200 mg/kg/day (AG-200), 12 weeks, FIG. 6
Excerpt: Although a MCDD animal model is a model that represents nonalcoholic steatohepatitis occurrence, the MCDD animal model cannot represent a risk factor that accompanies metabolic syndrome. In order to overcome such limitation, liver tissues of mice that were allowed to take high fat diet (HFD) as a general animal model with respect to hepatic steatosis were used for the comparison.
The animal model only had simple hepatic steatosis without inflammation unlike the MCDD group.
Alkoxy glycerol, as a plasmalogen precursor, was added to the HFD feed that induces obesity and non-alcoholic hepatic steatosis, and the feed was administrated to the animal model, and the change was confirmed.
First, the control group (CON) was prepared by allowing 7-week-old C57/BL6 male mice to take a general feed including 7% of fat, 18% of protein, and 75% of carbohydrate, and the HFD group was prepared by allowing 7-week-old C57/BL6 male mice to freely take a HFD feed including 60% of fat, 18% of protein, and 22% of carbohydrate.
Also, the AG group (AG-200) was allowed to take the HFD mixed with 200 mg/kg/day of alkoxy glycerol. The experimental groups were allowed to take the corresponding feeds for the total of 12 weeks, and liver histological changes in the livers were confirmed in the same manner in Example 4, and the plasma ALT levels were confirmed in the same manner as in Example 1.

CCCCCCCCCCCCCCCCCCOCC(O)CO (centres unmarked) [alkoxy glycerol, batyl alcohol]
change in plasma ALT [1]: significantly improvement | change in amount of neutral fats of liver tissues [2]: significantly improvement | expression of inflammatory cytokine genes (TNF-α, MCP-1) in liver tissue [3]: suppressed expression of inflammatory cytokine genes | steatohepatitis, H&E and trichrome C histology ([4]; MCD diet with 100 mg/kg/day, 6 weeks): relieved to the similar level with that of the control group | liver fibrosis ([4]; MCDD together with alkoxy glycerol): significant improvement | hepatic steatosis occurrence (liver histology) [5]: significant improvement | lipid content in the liver tissues [5]: significant improvement | plasma ALT level [5]: remarkable reduction
